Experimental findings from patent US11931339B2, “Compositions and methods for treating tissue injury” (CASE WESTERN RESERVE UNIVERSITY, priority 2018, dated 2024) are described below.

Test [1] deals with T1, PKM2-C423/424A in HEK cells (Homo sapiens, UniProt P14618, C423A/C424A).
T1 construct: host or cells: HEK cells (endogenous PKM2 depleted by siRNA against the 3' UTR)
Description: Activity of Myc-PKM2-C423/424A after NO (DETA-NO) treatment in HEK cells. The conditions noted are these: 500 μM DETA-NO for 20 hr; FIG. 11b. The format is cell-based. Here is the method: (§1) HEK cell transfection was described herein. siRNA-mediated protein depletion was used in HEK cells. Two custom PKM2 siRNAs that target the 3′ UTR of PKM2 were obtained from Dharmacon. siRNA oligonucleotides (60 pmol/10 cm plate) were transfected into HEK cells using Lipofectamine RNAiMAX (Invitrogen) according to the manufacturer's protocol. After 24 hours, 5 μg pCMV-control, pCMV-PKM2-WT or pCMV-PKM2-C423A/424A were co-transfected with siRNA oligonucleotides (60 pmol/10 cm plate) into HEK cells using Lipofectamine 2000. After 24 hrs, cells were treated with 500 μM DETA-NO for 20 hr. Cells were then collected for assay.
PKM activity was measured based on generation of pyruvate, which was oxidized by pyruvate oxidase to produce color (k=570 nm). To measure PKM2 activity in vitro, 250 ng recombinant PKM2-WT and PKM2-C423A/424A proteins were pre-incubated with substrate 2 μl fructose-1,6-bisphosphate (FBP)(250 μM) in 2 ml dialysis buffer [20 mM Tris-HCL (pH 7.9), 20% (v/v) glycerol, 0.1 M KCL, 0.2 mM EDTA], followed by dialysis to remove the free FBP in 2 L dialysis buffer. After 10 ng PKM2-FBP complex was treated with 200-300 μM SNO-CoA for 10 min at room temperature, the activity of PKM2 was measured. […] Extracts were clarified by centrifugation (20,000 g, 4° C., 20 min, ×2), and protein concentration was determined by bicinchoninic acid assay. […]

In test [2] the test system is Myc-PKM2-WT and Myc-PKM2-C423/424A expressing HEK cells. Briefly: PEP accumulation in PKM2-expressing HEK cells after NO treatment. The format is cell-based. The conditions noted are these: HEK cells with endogenous PKM2 knocked down; 500 μM DETANO; FIG. 3h. Here is the method:
as §1
(§2) The amount of pyruvate was measured using Pyruvate Assay Kit (Sigma). Kidneys harvested from SCoR^+/+, SCoR^−/−, PKM2^+/+ or PKM2^−/− mice (sham operation or AKI) were mechanically homogenized in Pyruvate Assay Buffer (1 mg/5 μl buffer). After extracts were clarified by centrifugation (20,000 g, 4° C., 20 min, ×2), supernatant was used for assay. GHB in the serum of SCoR^+/+ and SCoR^−/− mice was measured following the GHB enzymatic assay kit from BUHLMANN. […] The amount of PEP, 6PG, ATP, ADP and serine were respectively measured using PEP Colorimetric/Fluorometric Assay Kit (Sigma), 6 phosphogluconate Assay kit (abeam), ATP Colorimetric/Fluorometric Assay Kit (Sigma), ADP Colorimetric/Fluorometric Assay Kit (Sigma) and DL-Serine Assay kit (Fluorometric) (Biovision).

For test [3] the test system is unchanged. Briefly: 6-phosphogluconate accumulation in PKM2-expressing HEK cells after NO treatment. The test is classed as cell-based. Particulars: DETANO 500 μM, FIG. 11d. How it is done:
as §1, §2

Test [4] relates to Myc-PKM2-WT and Myc-PKM2-C423/424A HEK cells. Description: ADP/ATP ratio in PKM2-expressing HEK cells under NO treatment. The test is classed as cell-based. Particulars: HEK cells under NO treatment (DETANO 500 μM); FIG. 12. How it is done: as §1, §2
The next test addresses T2, recombinant PKM2 (Homo sapiens, UniProt P14618).
T2 construct: 6xHis (C); made in house; host or cells: E. coli BL21-CodonPlus
Briefly: PKM activity of recombinant PKM2 after SNO-CoA treatment. The test is classed as biochemical. The conditions noted are these: PKM2-FBP complex, 200-300 μM SNO-CoA for 10 min at room temperature; FIG. 3d. Here is the method:
PKM activity was measured based on generation of pyruvate, which was oxidized by pyruvate oxidase to produce color (k=570 nm). To measure PKM2 activity in vitro, 250 ng recombinant PKM2-WT and PKM2-C423A/424A proteins were pre-incubated with substrate 2 μl fructose-1,6-bisphosphate (FBP)(250 μM) in 2 ml dialysis buffer [20 mM Tris-HCL (pH 7.9), 20% (v/v) glycerol, 0.1 M KCL, 0.2 mM EDTA], followed by dialysis to remove the free FBP in 2 L dialysis buffer. After 10 ng PKM2-FBP complex was treated with 200-300 μM SNO-CoA for 10 min at room temperature, the activity of PKM2 was measured. To measure PKM2 activity in kidney, kidneys were mechanically homogenized in lysis buffer [50 mM phosphate buffer, pH 7.0, 150 mM NaCl, 0.1 mM EDTA, 0.1 mM DTPA, 1 mM PMSF, and protease inhibitor mixture (Roche)]. Extracts were clarified by centrifugation (20,000 g, 4° C., 20 min, ×2), and protein concentration was determined by bicinchoninic acid assay. 10 μl (0.1 μg/μl) lysate was used to measure PKM2 activity. Assay of PKM2 activity was followed the protocol of Pyruvate Kinase Activity Colorimetric/Fluorometric Assay Kit from Biovison In.

The target of the next test is recombinant PKM1 (Homo sapiens, UniProt P14618). Description: Activity of recombinant PKM1 after SNO-CoA treatment. The test is classed as biochemical. Particulars: FIG. 8.
The next test addresses recombinant PKLR (Homo sapiens, UniProt P30613). Briefly: Activity of recombinant PKLR after SNO-CoA treatment. The format is biochemical. The conditions noted are these: FIG. 8.
Test [5] concerns the target T3, recombinant PKM2-C423/424A (Homo sapiens, UniProt P14618, C423A/C424A).
T3 construct: 6xHis (C); made in house; host or cells: E. coli BL21-CodonPlus
Description: Activity of recombinant PKM2-C423/424A after SNO-CoA treatment. The format is biochemical. The conditions noted are these: in vitro, 200-300 μM SNO-CoA for 10 min; FIG. 3f. The text has this:
The mammalian cell expression plasmid pCMV-PKM2 was obtained from Origene. Mammalian cell expression plasmid pcDNA-SCoR was constructed by PCR-cloning. pCMV-PKM2 cysteine mutants were generated by QuikChange II Site-Directed Mutagenesis Kit (Agilent). For purification of recombinant PKM2, cDNA encoding PKM2-WT or PKM2-C423A/424A were cloned into pET21b (Novagen) to introduce a C-terminal 6×His tag on the expressed protein. The recombinant PKM2 proteins were purified from BL21-CodonPlus Competent E. coli Cells (Agilent). Overnight E. coli cultures were sub-cultured into 1 L of LB medium at 5%. At OD600 of 0.5, cultures were induced with […] IPTG and grown for a further 4 hr at 28° C. Cultures were centrifuged at 4000 g for 10 min to harvest the cells. Cell pellets from 1 L cultures were lysed in 10 mL of 1×PBS buffer containing 1 mM PMSF and protease-inhibitor cocktail by sonication. After centrifugation at 14500 g for 20 min, the supernatant was collected. […]
PKM activity was measured based on generation of pyruvate, which was oxidized by pyruvate oxidase to produce color (k=570 nm). […] After 10 ng PKM2-FBP complex was treated with 200-300 μM SNO-CoA for 10 min at room temperature, the activity of PKM2 was measured. […] Extracts were clarified by centrifugation (20,000 g, 4° C., 20 min, ×2), and protein concentration was determined by bicinchoninic acid assay. […]

In the next test the target is T4, tetrameric PKM2-WT (Homo sapiens, UniProt P14618).
T4 construct: 6xHis (C); made in house; host or cells: E. coli BL21-CodonPlus
Description: PKM2 dimer and tetramer formation in vitro, PKM2-WT. The test is classed as biochemical. The conditions noted are these: purified proteins, 200-300 μM SNO-CoA for 10 min; FIG. 3g. Here is the method: Assay of PKM2 dimer and tetramer in vitro follows previous descriptions. In brief, after 40 ng PKM2-FBP complex was treated with 200-300 μM SNO-CoA for 10 min at room temperature, 5 μl fresh glutaraldehyde (50%) was added to a reaction mixture containing 100 mM HEPES (pH 7.5) for 5 min at 37° C. The cross-linking reaction was terminated by addition of 5 μl 1M Tris-HCL (PH 8.0). Assay of PKM2 dimer and tetramer in situ was carried out as described previously. DSS (disuccinimidyl suberate; Thermo Scientific) (final 500 μM) was added to cells for 30 min at room temperature to cross-link proteins. Cells were lysed in RIPA Buffer and protein concentration was determined by bicinchoninic acid assay. Equal amounts of protein were separated by 4-15% Criterion™ Precast Midi Protein Gel and monomer, dimer and tetramer forms of PKM2 were detected with PKM2 antibody.

In another test the test system is SCoR−/− mice. Briefly: Ascorbate-supplemented chow in SCoR−/− mice: ascorbate levels and I/R-induced AKI. The format is in vivo. The conditions noted are these: chow with 1% ascorbate for six weeks, FIGS. 7b-c. Here is the method:
AKI surgery was carried out as described herein. Mice of similar age (9-11 weeks) and body weight (male: 25-28 g; female: 22-25 g) were used for surgery. The mice were anesthetized with isoflurane (1-3%) in oxygen and then anesthesia was maintained with isoflurane (0.75-2.0%) and adjusted as needed. The fur in the surgical area was removed with clippers and the skin sterilized with 3 times alternating washes of betadine […] and alcohol. The mouse was placed on a thermostatic station during surgery. The skin and muscle were cut open along the back to expose both right and left kidneys. Gentle blunt dissection was performed through muscular layers to reveal the kidney and a Q-tip was used to mobilize and exteriorize the kidney. A 5-0 silk suture was used to clamp the pedicle to block the blood flow to the kidney to induce renal ischemia for 23 min in male mice or 50 min in female mice, then the sutures released to allow reperfusion. The identical steps were performed on the contra-lateral side. A silk suture was used to close the muscle layer of the incision followed by the closure of the skin wound with vicryl. […] Seram creatinine and BUN were determined after 24 hrs of reperfusion upon removal of the kidney (when larger volumes of blood can be collected). Seram creatinine and BUN were measured at University Hospital's Clinical Laboratories.

Chain of recombinant PKLR (P30613 whole entry, species assumed): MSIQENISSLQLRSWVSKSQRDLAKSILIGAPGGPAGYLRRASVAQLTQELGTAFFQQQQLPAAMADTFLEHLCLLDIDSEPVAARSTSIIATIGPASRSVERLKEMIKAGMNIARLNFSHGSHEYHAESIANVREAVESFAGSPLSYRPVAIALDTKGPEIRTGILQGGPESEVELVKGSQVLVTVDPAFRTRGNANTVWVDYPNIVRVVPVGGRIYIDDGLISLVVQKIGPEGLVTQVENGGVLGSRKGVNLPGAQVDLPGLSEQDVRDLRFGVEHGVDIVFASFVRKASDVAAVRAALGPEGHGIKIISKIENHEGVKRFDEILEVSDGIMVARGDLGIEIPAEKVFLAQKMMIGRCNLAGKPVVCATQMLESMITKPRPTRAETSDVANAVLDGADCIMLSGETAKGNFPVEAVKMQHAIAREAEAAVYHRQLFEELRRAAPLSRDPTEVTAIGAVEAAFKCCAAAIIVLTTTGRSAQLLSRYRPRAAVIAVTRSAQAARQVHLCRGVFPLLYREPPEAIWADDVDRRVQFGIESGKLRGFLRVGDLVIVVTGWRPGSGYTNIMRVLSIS
T4 sequence (P14618 whole entry, species assumed): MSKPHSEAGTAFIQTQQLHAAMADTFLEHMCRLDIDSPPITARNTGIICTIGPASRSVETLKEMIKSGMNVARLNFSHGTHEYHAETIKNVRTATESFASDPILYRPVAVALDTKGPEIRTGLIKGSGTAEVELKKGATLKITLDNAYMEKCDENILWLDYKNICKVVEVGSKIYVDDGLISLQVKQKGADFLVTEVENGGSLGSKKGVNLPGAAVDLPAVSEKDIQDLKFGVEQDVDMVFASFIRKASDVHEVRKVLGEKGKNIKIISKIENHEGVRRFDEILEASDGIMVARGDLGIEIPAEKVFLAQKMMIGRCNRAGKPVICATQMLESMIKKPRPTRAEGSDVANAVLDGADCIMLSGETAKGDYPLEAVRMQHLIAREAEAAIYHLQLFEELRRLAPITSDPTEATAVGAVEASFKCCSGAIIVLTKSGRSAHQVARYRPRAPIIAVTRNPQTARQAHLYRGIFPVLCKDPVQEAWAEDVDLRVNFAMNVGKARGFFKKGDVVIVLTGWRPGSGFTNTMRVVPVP
T2 sequence (P14618 whole entry, species assumed): as above
T3 sequence (P14618 2-531 C423A/C424A): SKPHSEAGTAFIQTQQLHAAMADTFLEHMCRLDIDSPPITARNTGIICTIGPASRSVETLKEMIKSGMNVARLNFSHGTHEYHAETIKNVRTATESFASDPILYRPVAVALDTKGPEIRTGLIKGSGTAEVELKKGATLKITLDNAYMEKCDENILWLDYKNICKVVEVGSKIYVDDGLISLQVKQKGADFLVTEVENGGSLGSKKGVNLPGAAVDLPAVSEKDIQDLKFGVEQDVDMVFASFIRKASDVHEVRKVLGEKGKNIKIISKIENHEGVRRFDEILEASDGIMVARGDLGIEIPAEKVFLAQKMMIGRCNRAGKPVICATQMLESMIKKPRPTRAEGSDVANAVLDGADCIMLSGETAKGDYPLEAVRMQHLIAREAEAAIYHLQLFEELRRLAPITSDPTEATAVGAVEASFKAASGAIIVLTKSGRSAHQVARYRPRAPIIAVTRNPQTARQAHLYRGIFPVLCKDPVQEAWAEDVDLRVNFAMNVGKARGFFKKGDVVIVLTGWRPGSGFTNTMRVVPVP
T1 sequence (P14618 2-531 C423A/C424A): as above
Chain of recombinant PKM1 (P14618 1-531 isoform P14618-2, species assumed): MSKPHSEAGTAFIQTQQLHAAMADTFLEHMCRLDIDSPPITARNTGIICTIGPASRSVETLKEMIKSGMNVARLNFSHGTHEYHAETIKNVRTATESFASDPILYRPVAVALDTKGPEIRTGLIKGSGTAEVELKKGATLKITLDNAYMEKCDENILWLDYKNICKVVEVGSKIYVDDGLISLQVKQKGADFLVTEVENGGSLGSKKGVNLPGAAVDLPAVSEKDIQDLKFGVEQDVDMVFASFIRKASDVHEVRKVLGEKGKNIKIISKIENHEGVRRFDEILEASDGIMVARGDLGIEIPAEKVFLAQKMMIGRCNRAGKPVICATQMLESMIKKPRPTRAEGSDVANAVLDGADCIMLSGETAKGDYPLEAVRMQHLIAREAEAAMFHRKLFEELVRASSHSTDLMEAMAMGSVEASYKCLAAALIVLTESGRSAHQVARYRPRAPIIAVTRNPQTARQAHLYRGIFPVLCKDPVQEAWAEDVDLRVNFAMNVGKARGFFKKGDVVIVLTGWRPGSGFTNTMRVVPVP

With `NCCN(CCN)/[N+]([O-])=N/O` [DETA-NO], the “activity of PKM2-C423/424A in HEK cells” value in test [1] is listed as “cannot be inhibited”. In test [2], the “accumulation of PEP in Myc-PKM2-C423/424A cells” value was “not Myc-PKM2-C423/424A cells” and the “accumulation of PEP in Myc-PKM2-WT cells” value is “promoted the accumulation of PEP”. Moreover, the “accumulation of 6-phosphogluconate in Myc-PKM2-WT vs. Myc-PKM2-C423/424A cells” value in [3] is given as “promotes accumulation of 6-phosphogluconate”. In addition, in test [4], the “ADP/ATP ratio between Myc-PKM2-WT and Myc-PKM2-C423/424A cells” value is listed as “no different”.
In the case of `CC(C)(COP(=O)(O)OP(=O)(O)OC[C@H]1O[C@@H](n2cnc3c(N)ncnc32)[C@H](O)[C@@H]1OP(=O)(O)O)[C@@H](O)C(=O)NCCC(=O)NCCSN=O` [SNO-CoA, S-nitroso-CoA], the “activity of recombinant PKM2 after SNO-CoA treatment” value on recombinant PKM2 is recorded as “directly inhibited”. The “activity of recombinant PKM1 after SNO-CoA treatment” value at recombinant PKM1 was “not other PK isoforms (PKM1 or PKLR), was directly inhibited”. In addition, at recombinant PKLR, the “activity of recombinant PKLR after SNO-CoA treatment” value is recorded as “not other PK isoforms (PKM1 or PKLR), was directly inhibited”. Moreover, the “activity of PKM2-C423/424A after SNO-CoA treatment” value in test [5] is recorded as “cannot be inhibited”. Also, on tetrameric PKM2-WT, the “formation of tetrameric PKM2-WT” value is recorded as “inhibited formation of tetrameric PKM2-WT”.
In the case of `O=C1O[C@H]([C@@H](O)CO)C(O)=C1O` [ascorbate, ascorbic acid], in the test on SCoR−/− mice, the “AKI phenotype (serum creatinine and BUN)” value is on record as “no effect on the AKI phenotype”.
